# Test results reported in paper PMC10050424, “Structural basis of the substrate recognition and inhibition mechanism of Plasmodium falciparum nucleoside transporter PfENT1” (Nature Communications, 2023).
# Where a chain is given by its changes, count along the chain named. Values joined by “and” are separate entries in the source; they are usually repeats but may differ in a detail not shown here. Equal values may be shown once. Read-outs that look alike come from different tables or passages of the source.
# Experiments:
# PfENT1WT = molecular target: T1, PfENT1WT (Plasmodium falciparum, UniProt Q8IDM6); assay: biochemical; format: binding
# T1 construct: 10xHis (N); made in house; host or cells: Sf9 insect cells (baculovirus)
# T1 sequence (Q8IDM6 whole entry): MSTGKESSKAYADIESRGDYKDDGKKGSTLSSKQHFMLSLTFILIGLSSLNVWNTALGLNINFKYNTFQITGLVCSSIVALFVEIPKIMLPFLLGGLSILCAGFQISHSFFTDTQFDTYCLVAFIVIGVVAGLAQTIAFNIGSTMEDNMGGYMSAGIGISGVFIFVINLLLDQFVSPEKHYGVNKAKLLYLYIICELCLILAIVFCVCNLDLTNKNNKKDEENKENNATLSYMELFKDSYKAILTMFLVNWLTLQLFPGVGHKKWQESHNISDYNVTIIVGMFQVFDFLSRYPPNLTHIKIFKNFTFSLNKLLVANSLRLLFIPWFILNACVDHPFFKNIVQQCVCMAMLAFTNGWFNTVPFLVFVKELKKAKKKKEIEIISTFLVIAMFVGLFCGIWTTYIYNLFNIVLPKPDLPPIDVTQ
# Description: (§1) For the in vitro binding assay, Sf9 cells were solubilized in lysis buffer containing 2% (w/v) n-dodecyl-β-D-maltopyranoside (DDM, Anatrace) and protease inhibitor cocktail (0.8 μM aprotinin, 2 μM pepstatin, and 5 μg/ml leupeptin) at 4 °C for 2 h. The soluble supernatant was collected via centrifugation and incubated with Ni-NTA resin (QIAGEN) at 4 °C for 1 h. The resin was washed and eluted using lysis buffer containing 0.05% (w/v) DDM and 30 mM/300 mM imidazole. The protein was further purified by size-exclusion chromatography (Superdex 200 Increase 10/300; GE Healthcare) in buffer containing 25 mM MES (pH 6.0), 150 mM NaCl, and 0.05% (w/v) DDM. The peak fractions were pooled and concentrated to 10~50 μM for the nucleoside-binding assay.
# (§2) The binding affinity between wild-type and mutant PfENT1 with nucleosides and GSK4 was measured using a Micro-Cal ITC200 (Malvern). All proteins were prepared in 25 mM MES (pH 6.0), 150 mM NaCl, and 0.05% (w/v) DDM. Nucleosides (5~10 mM) and GSK4 (100-200 μM) dissolved in the same buffer were titrated against 20–50 μM PfENT1 proteins at 25 °C. PEAQ-ITC analysis software (MicroCal) was employed to analyze the data. All titrations were repeated three times.
# PfENT1Y190A = molecular target: T2, PfENT1Y190A (Plasmodium falciparum, UniProt Q8IDM6, Y190A); assay: ITC binding to PfENT1Y190A; conditions: compared with wild type
# T2 construct: 10xHis (N); made in house; host or cells: Sf9 insect cells (baculovirus)
# T2 sequence (Q8IDM6 1-422 Y190A): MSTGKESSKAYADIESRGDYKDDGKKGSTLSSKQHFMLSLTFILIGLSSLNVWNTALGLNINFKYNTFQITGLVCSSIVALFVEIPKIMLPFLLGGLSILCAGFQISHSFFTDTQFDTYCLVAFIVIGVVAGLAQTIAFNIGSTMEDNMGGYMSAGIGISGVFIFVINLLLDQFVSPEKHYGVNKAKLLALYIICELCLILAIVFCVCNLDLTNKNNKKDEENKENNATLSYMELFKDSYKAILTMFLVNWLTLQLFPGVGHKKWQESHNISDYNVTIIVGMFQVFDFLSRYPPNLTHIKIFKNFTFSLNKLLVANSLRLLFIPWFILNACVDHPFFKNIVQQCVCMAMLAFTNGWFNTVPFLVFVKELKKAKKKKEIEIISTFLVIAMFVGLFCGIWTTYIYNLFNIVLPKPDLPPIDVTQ
# Description: as §1, §2
# PfENT1 mutant Q135A = molecular target: T3, PfENT1 mutant Q135A (Plasmodium falciparum, UniProt Q8IDM6, Q135A); assay: ITC binding to PfENT1 mutant Q135A; conditions: Fig. 3c
# T3 construct: 10xHis (N); made in house; host or cells: Sf9 insect cells (baculovirus)
# T3 sequence (Q8IDM6 whole entry Q135A): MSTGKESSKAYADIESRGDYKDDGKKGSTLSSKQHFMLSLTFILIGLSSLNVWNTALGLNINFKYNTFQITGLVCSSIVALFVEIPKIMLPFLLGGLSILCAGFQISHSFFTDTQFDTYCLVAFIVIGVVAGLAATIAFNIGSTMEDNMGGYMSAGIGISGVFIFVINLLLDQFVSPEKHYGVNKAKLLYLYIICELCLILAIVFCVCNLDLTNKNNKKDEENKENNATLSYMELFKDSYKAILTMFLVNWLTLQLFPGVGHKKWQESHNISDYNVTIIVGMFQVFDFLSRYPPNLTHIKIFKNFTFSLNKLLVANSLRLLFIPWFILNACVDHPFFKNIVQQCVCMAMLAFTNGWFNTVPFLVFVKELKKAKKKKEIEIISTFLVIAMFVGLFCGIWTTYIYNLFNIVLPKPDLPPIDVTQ
# Description: as §1, §2
# PfENT1 mutant D287A = molecular target: T4, PfENT1 mutant D287A (Plasmodium falciparum, UniProt Q8IDM6, D287A); assay: ITC binding to PfENT1 mutant D287A; conditions: Fig. 3c
# T4 construct: 10xHis (N); made in house; host or cells: Sf9 insect cells (baculovirus)
# T4 sequence (Q8IDM6 1-422 D287A): T2 sequence (Q8IDM6 1-422 Y190A) with A190Y, D287A
# Description: as §1, §2
# PfENT1 W53A = molecular target: T5, PfENT1 W53A (Plasmodium falciparum, UniProt Q8IDM6, W53A); assay: Inosine uptake assay, yeast expressing PfENT1 W53A; format: cell-based; conditions: Fig. 3d, construct W53A
# T5 construct: expressed in transfected cells; host or cells: S. cerevisiae BY4741, FUI1 deleted, PfENT1 mutant knock-in under the TEF1 promoter
# T5 sequence (Q8IDM6 whole entry W53A): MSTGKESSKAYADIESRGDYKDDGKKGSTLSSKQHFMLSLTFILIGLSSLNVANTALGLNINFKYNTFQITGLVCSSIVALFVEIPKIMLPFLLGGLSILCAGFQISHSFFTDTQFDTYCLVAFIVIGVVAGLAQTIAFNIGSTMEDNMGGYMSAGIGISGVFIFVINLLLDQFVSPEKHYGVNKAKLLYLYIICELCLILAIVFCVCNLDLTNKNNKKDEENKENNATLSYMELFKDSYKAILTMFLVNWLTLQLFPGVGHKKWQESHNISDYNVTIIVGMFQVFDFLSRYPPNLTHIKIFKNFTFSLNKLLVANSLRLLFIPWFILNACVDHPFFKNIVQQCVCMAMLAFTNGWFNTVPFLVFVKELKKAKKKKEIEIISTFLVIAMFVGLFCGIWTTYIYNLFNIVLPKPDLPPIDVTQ
# From the text: Codon-optimized PfENT1 (for expression in yeast) was synthesized by Sangon Biotech. The carboxyl terminus of PfENT1 was HA-tagged through PCR. The TEF1p promoter and PGK1t terminator were amplified from BY4741 genomic DNA. Overlap PCR was applied to generate the gene overexpression cassette of PfENT1 (TEF1p promoter-PfENT1-PGK1t terminator). The two 600-bp homologous arms corresponding to the upstream and downstream regions of the FUI1 gene were amplified from BY4741 genomic DNA. The gene cassette of the ‘TEF1p promoter-PfENT1-PGK1t terminator’ together with the two homologous arms was cloned into the PUC19 plasmid through Gibson assembly, generating the final plasmid PUC19: PfENT1. PfENT1 mutations were generated using point mutation and verified by Sanger sequencing. The spacer targeting the FUI1 gene (5ʹ-[…]-3ʹ) was cloned into the pCas-BsaI plasmid to generate the pCas-FUI1 plasmid as described previously. […]
# Cells were grown overnight in YPD medium to mid-log phase and harvested by centrifugation at 3000 × g for 5 min. […] After washing by vacuum filtration with 2 ml ice-cold 2% glucose, the radioactivity retained on the filter was incubated with 1 mL of ULTIMA GOLD scintillation fluid (Perkin Elmer, 77-15311). Counts were measured using a liquid scintillation analyzer (Perkin Elmer, Tri-Carb 5110TR). […]
structure (smiles),measurement,setting,value
"OC[C@H]1O[C@@H](n2cnc3c(O)ncnc32)[C@H](O)[C@@H]1O [Inosine, inosine]",Kd,"PfENT1WT; Kd, Mean and Mean ± SD, source data Figure 1a",64.7 µM
same,Kd,"PfENT1WT; Kd, N=3 (individual experiments), source data Figure 1a",52.3 µM and 64.2 µM and 77.7 µM
same,Kd,"PfENT1WT; binding affinity (Kd), ITC, 25 °C, pH 6.0, mean ± SD (n = 3), Fig. 1a and text",64.7 ± 12.7 µM
same,Kd,"PfENT1WT; read-out: Kd, Mean and Mean ± SD, source data Figure 1a",64.7 ± 12.7 µM
same,inosine-binding affinity,PfENT1Y190A,similar
same,binding affinity (Kd),PfENT1 mutant Q135A,complete abolishment
same,binding affinity (Kd),PfENT1 mutant D287A,completely lost inosine binding
same,Uptake of [3H]-inosine (Percentage of PfENT1 WT),PfENT1 W53A,abolished the transport activity
